The text below walks through data of patent US20050003388A1, “Calcium independent phospholipase A2upsilon polynucleotides and polypeptides and methods therefor” (priority 2000, published 2005).

One assay concerns the target T1, human iPLA2γ (Homo sapiens, UniProt Q9NP80).
T1 sequence (Q9NP80 1-782): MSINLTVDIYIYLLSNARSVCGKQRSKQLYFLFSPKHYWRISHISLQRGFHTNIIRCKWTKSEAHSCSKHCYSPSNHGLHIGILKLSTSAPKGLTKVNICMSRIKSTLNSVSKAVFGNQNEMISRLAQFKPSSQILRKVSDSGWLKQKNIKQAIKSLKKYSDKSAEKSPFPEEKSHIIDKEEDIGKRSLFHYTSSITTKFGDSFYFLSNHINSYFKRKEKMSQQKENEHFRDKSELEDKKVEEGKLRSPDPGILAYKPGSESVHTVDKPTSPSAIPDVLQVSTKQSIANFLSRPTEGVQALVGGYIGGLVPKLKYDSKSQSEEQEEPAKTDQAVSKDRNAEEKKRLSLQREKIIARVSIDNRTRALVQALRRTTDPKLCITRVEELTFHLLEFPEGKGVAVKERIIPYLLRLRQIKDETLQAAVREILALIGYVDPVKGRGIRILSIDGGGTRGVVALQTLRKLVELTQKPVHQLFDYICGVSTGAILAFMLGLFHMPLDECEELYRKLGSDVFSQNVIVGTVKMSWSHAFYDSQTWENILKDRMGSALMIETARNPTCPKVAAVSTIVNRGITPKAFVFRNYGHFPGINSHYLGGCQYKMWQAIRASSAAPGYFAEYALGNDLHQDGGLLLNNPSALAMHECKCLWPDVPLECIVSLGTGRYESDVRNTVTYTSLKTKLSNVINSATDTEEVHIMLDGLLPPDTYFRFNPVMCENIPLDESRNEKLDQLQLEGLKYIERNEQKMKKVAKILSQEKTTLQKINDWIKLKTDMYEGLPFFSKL
Briefly: Inhibition by BEL of phospholipase A2 activity of iPLA2γ in membrane fractions of infected Sf9 cells. Format: biochemical. The method, then: Briefly, Sf9 cells were infected with either wild-type baculovirus or baculovirus encoding human iPLA2γ, as described in Example 5. Cytosolic and membrane fractions of the infected Sf9 cells were prepared as described above. Phospholipase A2 activity was assessed as follows. Membrane fractions from control cells or cells expressing iPLA2γ were incubated with 40 μM L-α-1-palmitoyl-2-[1-^14C]oleoyl phosphatidylcholine in 100 mM Tris-Hac, pH 8.0, containing 1 mM EGTA at 37° C. Aliquots of the reaction were removed at the indicated times, and the amount of [1-^14C]oleic acid released was quantified as described above. Specifically, the release of sn-2-fatty acid from glycero-3-phosphocholine was determined as a function of time.
Briefly, Sf9 cells were infected with either wild-type baculovirus or baculovirus encoding human iPLA2γ, as described in Example 5. Membrane fractions of the infected Sf9 cells were prepared as described above, and then incubated for three minutes at room temperature in 100 mM Tris-HAc, pH 8.0, containing lmM EGTA, with varying concentrations of BEL, or ethanol vehicle, as indicated along the x-axis. L-α-1-palmitoyl-2-[1-^14C]oleoyl phosphatidylcholine (40 μM final concentration) in ethanol was then added to each reaction, followed by incubation at 37° C. for two minutes. Released [1-^14C]oleic acid was quantitated as described above. […]

In assay [1] the target is T2, calcium-facilitated phospholipase A2γ (Homo sapiens, UniProt Q9UP65).
T2 sequence (Q9UP65 1-541): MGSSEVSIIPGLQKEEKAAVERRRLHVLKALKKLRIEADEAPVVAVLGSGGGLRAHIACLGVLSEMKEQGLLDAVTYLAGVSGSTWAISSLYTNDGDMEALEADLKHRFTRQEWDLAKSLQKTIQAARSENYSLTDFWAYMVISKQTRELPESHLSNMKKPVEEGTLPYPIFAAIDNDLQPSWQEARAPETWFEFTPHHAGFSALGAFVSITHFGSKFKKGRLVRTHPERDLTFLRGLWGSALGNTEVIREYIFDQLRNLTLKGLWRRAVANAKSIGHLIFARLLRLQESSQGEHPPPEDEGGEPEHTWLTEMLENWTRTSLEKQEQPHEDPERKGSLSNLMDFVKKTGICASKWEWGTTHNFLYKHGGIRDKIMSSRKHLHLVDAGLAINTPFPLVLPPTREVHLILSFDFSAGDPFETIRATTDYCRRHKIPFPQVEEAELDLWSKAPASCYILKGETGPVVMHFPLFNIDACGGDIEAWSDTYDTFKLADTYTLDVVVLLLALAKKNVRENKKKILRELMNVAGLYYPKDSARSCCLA
The following applies: at <50 μM [BEL]; Jenkins et al. 2002; cited from earlier work.

Assay [2] concerns myocardial cytosolic and membrane-associated iPLA2. The following applies: irreversible mechanism-based inhibitor; Hazen et al. 1991, Zupan et al., Gross et al. 1993; cited from earlier work.

In the case of `O=C1OC(=CBr)CCC1c1cccc2ccccc12` (stereo not shown) [BEL, (E)-6-(bromomethylene)-3-(1-napthalenyl)-2H-tetrahydropyran-2-one], the IC50 on human iPLA2γ was around 3 µM. Moreover, on human iPLA2γ (5 μM BEL, preincubation of membranes for three minutes prior to addition of substrate (40 μM POPC), 37° C. two minutes), the inhibition at 5 µM was around 70%. Also, the “inhibition of calcium-facilitated phospholipase A2γ by BEL” value in assay [1] is “not inhibited”. The “concentrations giving nearly complete inhibition of myocardial cytosolic membrane-associated iPLA2” value in assay [2] was 2 to 5 µM.

For orientation: IC50 means the concentration needed to halve the response being measured. For orientation: inhibition means the change of the read-out against control, counted positive when it falls. Read a high inhibition as a response far below the control.
